According to US20160287601A1, “ENHANCED TREATMENT REGIMENS USING PI3K INHIBITORS” (MILLENNIUM PHARMACEUTICALS, INC., priority 2013, published 2016):

Tests used:
[1] = Phase 1 clinical study, safety and tolerability (MTD, AEs grade 3 or higher) in patients with advanced solid malignancies; format: in vivo
From the text: A phase 1 clinical study was initiated to evaluate the safety, tolerability, PK, pharmacodynamics; to determine the maximum tolerated dose (MTD) in each of 3 schedules described below; and to evaluate antitumor activity in patients with advanced solid malignancies.
Inclusion Criteria • Subjects have had their PIK3CA gene mutation status assessed prior to enrolling into the study • Subjects must have documented disease progression prior to enrolling into the study • locally advanced or metastatic solid tumors with the exception of primary brain tumor, and have failed or are not eligible for standard of care therapy. • Age ≧18 years, including males and females; • ECOG performance status (PS) 0-1; • Adequate organ function; • Male subjects must be surgically sterile or must agree to use physician-approved contraception during the study and for 30 days following the last study drug administration; • Ability to swallow oral medications; • Ability to understand and willingness to sign informed consent prior to initiation of any study procedures; • For women of child-bearing potential, negative serum pregnancy test within 14 days prior to the first study drug administration and use of physician-approved method of birth control from 30 days prior to the first study drug administration to 30 days following the last study drug administration
35 patients were enrolled into the dose escalation phase of the study, which is designed to determine the MTD of compound A when given orally on continuous (daily) or intermittent schedules. The MTD for the QD dosing schedule was determined to be 100 mg.
Other than MTD, the other primary outcome measures is the tolerability profile of compound A or the number of adverse events (AE) from the first dose of study drug through 30 days after the last dose of study drug. Plasma levels of compound A is one of the secondary outcome measures.

[2] = tested on: T47D (PIK3CA mutant, ER/PR+) human breast cancer xenografts; assay: Antitumor activity alone and in combination with fulvestrant in T47-D xenografts; format: in vivo, NOD-SCID mice; settings: Compound A 70 mg/kg PO QD x 3/wk x 3, Fulvestrant 100 mg/kg SC QW x 3; for TGI (tumor growth inhibition): Day 21 post treatment initiation; for ΔAUC (change in area under the tumor volume-versus-time curves): versus vehicle, 21 day treatment
From the text: The control used in this study was 100% PEG400+0.9% Saline. Fulvestrant was formulated in 0.9% saline.
Prior to injection, the cells were detached with Trypsin (Invitrogen), washed twice with phosphate buffered saline (PBS), and resuspended in RPMI (Roswell Park Memorial Institute) media (Invitrogen,) without supplements. Cells were resuspended to a final concentration of 10.0×10^7 cells/ml in DPBS and mixed with 50% Matrigel (BD Biosciences) at 1 to 1 volume. T47-D cells (10.0×10^6 cells/animal in 02-mL injection volume) were implanted S.C. into the right flank of NOD-SCID mice (Harlain Laboratories).
Four-six week old female NOD-SCID mice were inoculated SC in flank (cell suspension in DPBS and 50% Matrigel) with 10.0×10^6 T47-D cells. Tumor growth was monitored with vernier calipers. The mean TV (MTV) was calculated using the formula V=W2×L/2.
The percentage of tumor growth inhibition (TGI) and percent body weight (BW) change were determined on Day 21 and provided in Table 6. Statistical comparisons of tumor growth between the treatment and vehicle groups were conducted using a linear mixed effects regression analysis on the change in area under the tumor volume (TV)-versus—time curves (ΔAUC) values. All p values less than 0.05 were considered significant.
A combination score calculation was used to address the question of whether the effects of the combination treatments were synergistic, additive, subadditive, or antagonistic relative to the individual treatments. The effect was considered synergistic if the synergy score was less than 0, and additive if the synergy score wasn't statistically different from 0.

[3] = tested on: MDA-MB-361 human breast cancer xenografts; assay: Antitumor activity in MDA-MB-361 human breast cancer xenografts, various doses and schedules; format: in vivo, female athymic nude mice; settings: PO
Method: Objectives of this study: to determine the in vivo antitumor activity of compound A at various doses and schedules in the MDA-MB-361 human breast cancer xenografts after oral (PO) administration in female nude mice.
Compound A was prepared according to methods disclosed in WO 2011/022439 and WO 2013/071272 and stored at approximately 25° C., shielded from light. The control used in this study was 100% PEG400.
Low passage MDA-MB-361 cells were grown in Dulbecco's Modified Eagle's Medium (DMEM) media supplemented with 20% fetal bovine serum (FBS) and 1× penicillin/streptomycin (Invitrogen [Carlsbad, Calif., USA]) until approximately 80% confluency was reached. […]
Four-five week old female athymic nude mice were inoculated SC in flank (cell suspension in serum free DMEM and 50% Matrigel) with 10.0×10^6 MDA-MB-361 cells. Tumor growth was monitored with vernier calipers. The mean TV (MTV) was calculated using the formula V=W^2×L/2.
When tumors reached a mean tumor volume (MTV) of approximately 280 mm^3, mice (n=5/group) were treated with vehicle (PEG400) or compound A (60, 70, 140, or 210 mg/kg) administered concurrently via oral gavage over a 28 day treatment period on the schedules indicated below in Table 2. The percentage of tumor growth inhibition (TGI) and percent body weight (BW) change were determined on Day 28. […]

| Compound | maximum tolerated dose (MTD) ([1]; QD (continuous daily) oral dosing schedule) [mg] | Abdominal pain, AEs grade 3 or higher ([1]; both, human, in vivo) | Anaemia, AEs grade 3 or higher ([1]; both, human, in vivo) | Chills, AEs grade 3 or higher ([1]; both, human, in vivo) | Decreased appetite, AEs grade 3 or higher ([1]; both, human, in vivo) | Diarrhoea, AEs grade 3 or higher ([1]; both, human, in vivo) | Drug-induced liver injury, AEs grade 3 or higher ([1]; both, human, in vivo) | Hyperglycaemia, AEs grade 3 or higher ([1]; both, human, in vivo) | Nausea, AEs grade 3 or higher ([1]; both, human, in vivo) | Oxygen saturation, AEs grade 3 or higher ([1]; both, human, in vivo) | Transaminases incr'd, AEs grade 3 or higher ([1]; both, human, in vivo) | TGI (tumor growth inhibition) [2] [%] | TGI (tumor growth inhibition) ([2]; listed as compound A) [%] | ΔAUC (change in area under the tumor volume-versus-time curves) [2] | efficacy in reducing tumor size, intermittent regimen versus daily administration ([3]; 28 day treatment, total amount administered comparable in daily and intermittent schedules) | relationship between efficacy (tumor growth inhibition, TGI) and exposure (AUC) between dosing schedules ([3]; single agent, FIG. 3) |
| --- | --- | --- | --- | --- | --- | --- | --- | --- | --- | --- | --- | --- | --- | --- | --- | --- |
| Nc1nc2cc(-c3ccc4ncc(C(=O)N5CCOCC5)n4c3)ccc2o1 [Compound A, (6-(2-aminobenzo[d]oxazol-5-yl)imidazo[1,2-a]pyridin-3-yl)(morpholino)methanone] | 100 | 1 (4) n (%) | 1 (5) n (%) | 1 (6) n (%) | 1 (6) n (%) | 1 (6) n (%) | 1 (4) n (%) | 2 n (%) | 1 (6) n (%) | 1 (6) n (%) | 2 (8) n (%) | 52.60 | 52.6 | 61.2 | as efficacious in reducing tumor size as daily administration | AUC-driven |
| C[C@]12CC[C@@H]3c4ccc(O)cc4C[C@@H](CCCCCCCCC[S+]([O-])CCCC(F)(F)C(F)(F)F)[C@H]3[C@@H]1CC[C@@H]2O (stereo partly drawn) [Fulvestrant, (7α,17β)-7-{9-[(4,4,5,5,5-pentafluoropentyl)sulfinyl]nonyl}estra-1,3,5(10)-triene-3,17-diol, reference compound] | – | – | – | – | – | – | – | – | – | – | – | 66.70 | – | 108.4 | – | – |
